Measured values from patent publication US20020103192A1, “Inhibitors of histone deacetylase” (priority 2000, published 2002).

melting point [°C] | Compound
39 to 40 | O=C(CCCCCCSc1ccccc1)c1ncco1 [Example 102, 1-(1,3-oxazol-2-yl)-7-(phenylsulfanyl)-1-heptanone]
55 to 56 | O=C(CCCCCCS(=O)(=O)c1ccccc1)c1ncco1 [Example 103, 1-(1,3-oxazol-2-yl)-7-(phenylsulfonyl)-1-heptanone]
65 to 66 | O=C(CCCCCCSc1ccc2ccccc2c1)c1ncco1 [Example 104, 7-(2-naphthylsulfanyl)-1-(1,3-oxazol-2-yl)-1-heptanone]
75 to 76 | O=C(CCCCCCS(=O)(=O)c1ccc2ccccc2c1)c1ncco1 [Example 105, 7-(2-naphthylsulfonyl)-1-(1,3-oxazol-2-yl)-1-heptanone]
94 to 95 | CNC(=O)C(=O)CCCCCCSc1ccc2ccccc2c1 [Example 106, N-methyl-8-(2-naphthylsulfanyl)-2-oxooctanamide]
108 to 109 | CNC(=O)C(=O)CCCCCCS(=O)(=O)c1ccc2ccccc2c1 [Example 107, N-methyl-8-(2-naphthylsulfonyl)-2-oxooctanamide]
131 to 132 | CNC(=O)C(=O)CCCCCCSc1ccc(-c2ccccc2)cc1 [Example 108, 8-((1,1′-biphenyl)-4-ylsulfanyl)-N-methyl-2-oxooctanamide]
153 to 156 | O=C(NCCCCCCC(=O)c1ncco1)c1cc2ccccc2[nH]1 [Example 110, N-(7-(1 ,3-oxazol-2-yl)-7-oxoheptyl)-1H-indole-2-carboxamide]
176 to 179 | O=C(NCCCCCC(=O)c1ncco1)c1cc2ccccc2[nH]1 [Example 111, N-(6-(1,3-oxazol-2-yl)-6-oxohexyl)-1H-indole-2-carboxamide]
110 to 111 | CC(=O)C(=O)CCCCCCOc1ccc(-c2ccccc2)cc1 [Example 113, 9-((1,1′-biphenyl)-4-yloxy)-2,3-nonanedione]
